Experiments:
caspase-8 = assay: Caspase-8 level assay; format: cell-based, human; settings: MCF-7 cells; for Caspase-8 Fold Change: versus untreated control
Protocol: (§1) Additionally, the effects of compounds 12 and 17 on the levels of caspase-8, Bax, and Bacl-2 in the MCF-7 cancer cell line and staurosporine as a control were examined. […]
The solution in the wells should change from blue to yellow. Read the absorbance of each well at 450 nm having blanked the plate reader against a chromogen blank composed of 100 μl each of Stabilized Chromogen and Stop Solution. Read the plate within 2 hours after adding the Stop Solution. Use a curve fitting software to generate the standard curve. A four-parameter algorithm provides the best standard curve fit. Read the concentrations for unknown samples and controls from the standard curve. Multiply value(s) obtained for sample(s) by the appropriate dilution factor to correct for the dilution in step 3. Samples producing signals greater than that of the highest standard should be diluted in Standard Diluent Buffer and reanalyzed.
4.2.4. Caspase-8 activation assay
Cells were obtained from American Type Culture Collection, cells were grown in RPMI 1640 containing 10% fetal bovine serum at 37°C, stimulated with the compounds to be tested for caspase8, and lysed with Cell Extraction Buffer. This lysate was diluted in Standard Diluent Buffer over the range of the assay and measured for human active caspase-8 content. (Cells are Plated in a density of 1.2 – 1.8 × 10,000 cells/well in a volume of 100µl complete growth medium + 100 ul of the tested compound per well in a 96-well plate for 24 hours before the enzyme assay for Tubulin.). The absorbance of each microwell was read on a spectro-photometer at 450 nm. A standard curve is prepared from 7human Caspase-8 standard dilutions and human Caspase-8 concentration determined. […]

Bcl-2 = Bcl-2 level assay; format: cell-based, human; settings: MCF-7 cells; for Bcl-2 Fold Reduction: versus untreated control
Protocol: as §1
4.2.6. Bcl-2inhibition assay
Mix all reagents thoroughly without foaming before use. Wash the microwells twice with approximately 300 μL Wash Buffer per well with thorough aspiration of microwell contents between washes. Take caution not to scratch the surface of the microwells. After the last wash, empty the wells and tap microwell strips on absorbent pad or paper towel to remove excess Wash Buffer. Use the microwell strips immediately after washing or place upside down on a wet absorbent paper for not longer than 15 minutes. […] Add 100 μL of Sample […]
Diluent in duplicate to all standard wells and to the blank wells. Prepare standard (1:2 dilution) in duplicate ranging from 32 ng/mL to 0.5 ng/mL. Add 100 μL of Sample Diluent, in duplicate, to the blank wells. Add 80 μL of Sample Diluent, in duplicate, to the sample wells. Add 20 μL of each Sample, in duplicate, to the designated wells. Add 50 μL of diluted biotin-conjugate to all wells, including the blank wells. Cover with a plate cover and incubate at room temperature, on a microplate shaker at 100 rpm if available, for 2 hours. Remove plate cover and empty the wells.
Wash microwell strips 3 times as described in step 2. Add 100 μL of diluted Streptavidin-HRP to all wells, including the blank wells. Cover with a plate cover and incubate at room temperature, on a microplate shaker at 100 rpm if available, for 1 hour. Remove plate cover and empty the wells.
Wash microwell strips 3 times as described in step 2. Proceed to the next step. Pipette 100 μl of mixed TMB Substrate Solution to all wells, including the blanks. Incubate the microwell strips at room temperature (18° to 25°C) for about 15 minutes, if available on a rotator set at 100 rpm.
Avoid direct exposure to intense light. The point, at which the substrate reaction is stopped, is often determined by the ELISA reader. Many ELISA readers record absorbance only up to 2.0
O.D. Therefore, the color development within individual microwells must be watched by the person running the assay and the substrate reaction stopped before positive wells are no longer properly detectable. Stop the enzyme reaction by quickly pipetting 100 μL of Stop Solution into each well, including the blank wells. It is important that the Stop Solution is spread quickly and uniformly throughout the microwells to completely inactivate the enzyme. Results must be read immediately after the Stop Solution is added or within one hour if the microwell strips are stored at 2 - 8°C in the dark. Read absorbance of each microwell on a spectrophotometer using 450 nm as the primary wavelength.
4.3. Statistical analysis
Computerized Prism 5 program was used to statistically analyzed data using one-way ANOVA test followed by Tukey’s as post ANOVA for multiple comparison at P ≤.05. Data were presented

| Structure (SMILES) | Caspase-8 Conc (caspase-8) | Caspase-8 Fold Change (caspase-8) | Bcl-2 Conc (Bcl-2) | Bcl-2 Fold Reduction (Bcl-2) |
| --- | --- | --- | --- | --- |
| COc1ccc(C2CC(c3ccc(OCC(=O)Nc4ccc(C5=NNC(c6ccc(OC)c(OC)c6)C5)cc4)cc3)=NN2)cc1 (stereo not drawn) [Compound 12, 2-(4-(5-(4-Methoxyphenyl)-4,5-dihydro-1H-pyrazol-3-yl)phenoxy)-N-(4-(5-(3,4-dimethoxyphenyl)-4,5-dihydro-1H-pyrazol-3-yl)phenyl)acetamide] | 1.87 ng/mL | 21 | 1.05 ng/mL | 5 |
| COc1ccc(C2CC(c3ccc(NC(=O)COc4ccc(C5=NNC(c6ccc(OC)c(OC)c6)C5)cc4)cc3)=NN2)cc1 (stereo not drawn) [Compound 17, 2-(4-(5-(3,4-Dimethoxyphenyl)-4,5-dihydro-1H-pyrazol-3-yl)phenoxy)-N-(4-(5-(4-methoxyphenyl)-4,5-dihydro-1H-pyrazol-3-yl)phenyl)acetamide] | 1.77 ng/mL | 20 | 1.15 ng/mL | 4 |
| CN[C@@H]1C[C@H]2O[C@@](C)([C@@H]1OC)n1c3ccccc3c3c4c(c5c6ccccc6n2c5c31)C(=O)NC4 [Staurosporine, reference compound] | 1.80 ng/mL | 20 | 1.10 ng/mL | 5 |

From PMC10218941, “Design, Synthesis, Antiproliferative Actions, and DFT Studies of New Bis–Pyrazoline Derivatives as Dual EGFR/BRAF^V600E Inhibitors” (International Journal of Molecular Sciences, 2023)
